Experiments:
PIK3CA (human) = PIK3CA (human) (UniProt P42336); test: Assessment of PIK3CA Kinase Activity
PIK3CD (Human) = PIK3CD (Human) (UniProt O00329); test: Assessment of PIK3CD Kinase Activity
PIK3CB (Human) = PIK3CB (Human) (UniProt P42338); test: Assessment of PIK3CB Kinase Activity
Chain of PIK3CB (Human) (P42338 whole entry, looked up): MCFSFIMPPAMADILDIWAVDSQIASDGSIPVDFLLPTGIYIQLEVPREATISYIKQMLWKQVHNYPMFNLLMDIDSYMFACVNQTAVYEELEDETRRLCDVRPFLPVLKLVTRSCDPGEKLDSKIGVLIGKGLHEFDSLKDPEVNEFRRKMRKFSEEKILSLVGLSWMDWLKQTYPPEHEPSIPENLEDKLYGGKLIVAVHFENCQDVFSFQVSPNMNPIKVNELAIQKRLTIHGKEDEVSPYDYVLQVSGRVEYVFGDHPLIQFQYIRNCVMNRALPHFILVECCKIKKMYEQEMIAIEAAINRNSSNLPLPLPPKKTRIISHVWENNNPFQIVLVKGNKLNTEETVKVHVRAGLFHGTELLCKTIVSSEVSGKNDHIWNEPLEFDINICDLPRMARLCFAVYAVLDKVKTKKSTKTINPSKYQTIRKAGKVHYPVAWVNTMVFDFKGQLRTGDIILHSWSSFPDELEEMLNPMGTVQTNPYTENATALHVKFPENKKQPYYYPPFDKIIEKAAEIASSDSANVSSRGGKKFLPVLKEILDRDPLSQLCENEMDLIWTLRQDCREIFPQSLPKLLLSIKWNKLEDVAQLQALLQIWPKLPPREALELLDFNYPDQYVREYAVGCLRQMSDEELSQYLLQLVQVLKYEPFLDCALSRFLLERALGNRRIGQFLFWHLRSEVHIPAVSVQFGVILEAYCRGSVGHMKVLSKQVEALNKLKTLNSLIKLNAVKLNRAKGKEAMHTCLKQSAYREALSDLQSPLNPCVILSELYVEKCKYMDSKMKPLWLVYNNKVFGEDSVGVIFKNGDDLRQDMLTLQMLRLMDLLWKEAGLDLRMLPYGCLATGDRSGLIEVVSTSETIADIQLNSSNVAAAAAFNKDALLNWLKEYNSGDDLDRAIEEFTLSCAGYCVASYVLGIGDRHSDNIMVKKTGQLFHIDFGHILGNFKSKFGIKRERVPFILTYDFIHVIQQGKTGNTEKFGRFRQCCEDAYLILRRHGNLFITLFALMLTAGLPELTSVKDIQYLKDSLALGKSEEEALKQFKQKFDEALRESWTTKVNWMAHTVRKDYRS

Chain of PIK3CD (Human) (O00329 whole entry, looked up): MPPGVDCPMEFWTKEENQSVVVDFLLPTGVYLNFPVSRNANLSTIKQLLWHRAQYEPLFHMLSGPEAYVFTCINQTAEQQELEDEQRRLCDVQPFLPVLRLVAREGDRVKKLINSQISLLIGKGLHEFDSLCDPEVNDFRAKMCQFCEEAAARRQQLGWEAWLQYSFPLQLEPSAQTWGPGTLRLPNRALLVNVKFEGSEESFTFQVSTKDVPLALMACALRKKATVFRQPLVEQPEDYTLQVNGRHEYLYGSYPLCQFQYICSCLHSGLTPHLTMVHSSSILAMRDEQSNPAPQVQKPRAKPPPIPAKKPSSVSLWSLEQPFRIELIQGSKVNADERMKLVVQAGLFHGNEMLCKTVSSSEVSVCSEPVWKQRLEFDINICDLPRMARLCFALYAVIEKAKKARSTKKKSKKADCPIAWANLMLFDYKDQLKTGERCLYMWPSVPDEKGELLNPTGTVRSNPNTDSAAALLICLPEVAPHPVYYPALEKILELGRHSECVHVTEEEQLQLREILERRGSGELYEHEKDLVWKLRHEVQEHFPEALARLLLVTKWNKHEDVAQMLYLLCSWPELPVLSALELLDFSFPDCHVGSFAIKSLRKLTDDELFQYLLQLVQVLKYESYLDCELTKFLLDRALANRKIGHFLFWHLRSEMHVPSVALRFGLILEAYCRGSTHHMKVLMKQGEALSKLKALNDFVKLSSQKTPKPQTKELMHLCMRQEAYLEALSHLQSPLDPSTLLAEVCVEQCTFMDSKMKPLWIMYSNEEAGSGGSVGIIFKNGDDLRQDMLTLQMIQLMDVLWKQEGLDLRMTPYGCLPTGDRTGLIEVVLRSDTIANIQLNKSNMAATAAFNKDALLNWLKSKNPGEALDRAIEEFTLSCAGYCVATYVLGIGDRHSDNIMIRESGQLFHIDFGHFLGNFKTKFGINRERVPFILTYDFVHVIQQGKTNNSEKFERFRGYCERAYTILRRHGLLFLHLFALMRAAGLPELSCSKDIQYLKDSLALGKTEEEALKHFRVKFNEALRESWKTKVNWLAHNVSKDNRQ
Chain of PIK3CA (human) (P42336 whole entry, looked up): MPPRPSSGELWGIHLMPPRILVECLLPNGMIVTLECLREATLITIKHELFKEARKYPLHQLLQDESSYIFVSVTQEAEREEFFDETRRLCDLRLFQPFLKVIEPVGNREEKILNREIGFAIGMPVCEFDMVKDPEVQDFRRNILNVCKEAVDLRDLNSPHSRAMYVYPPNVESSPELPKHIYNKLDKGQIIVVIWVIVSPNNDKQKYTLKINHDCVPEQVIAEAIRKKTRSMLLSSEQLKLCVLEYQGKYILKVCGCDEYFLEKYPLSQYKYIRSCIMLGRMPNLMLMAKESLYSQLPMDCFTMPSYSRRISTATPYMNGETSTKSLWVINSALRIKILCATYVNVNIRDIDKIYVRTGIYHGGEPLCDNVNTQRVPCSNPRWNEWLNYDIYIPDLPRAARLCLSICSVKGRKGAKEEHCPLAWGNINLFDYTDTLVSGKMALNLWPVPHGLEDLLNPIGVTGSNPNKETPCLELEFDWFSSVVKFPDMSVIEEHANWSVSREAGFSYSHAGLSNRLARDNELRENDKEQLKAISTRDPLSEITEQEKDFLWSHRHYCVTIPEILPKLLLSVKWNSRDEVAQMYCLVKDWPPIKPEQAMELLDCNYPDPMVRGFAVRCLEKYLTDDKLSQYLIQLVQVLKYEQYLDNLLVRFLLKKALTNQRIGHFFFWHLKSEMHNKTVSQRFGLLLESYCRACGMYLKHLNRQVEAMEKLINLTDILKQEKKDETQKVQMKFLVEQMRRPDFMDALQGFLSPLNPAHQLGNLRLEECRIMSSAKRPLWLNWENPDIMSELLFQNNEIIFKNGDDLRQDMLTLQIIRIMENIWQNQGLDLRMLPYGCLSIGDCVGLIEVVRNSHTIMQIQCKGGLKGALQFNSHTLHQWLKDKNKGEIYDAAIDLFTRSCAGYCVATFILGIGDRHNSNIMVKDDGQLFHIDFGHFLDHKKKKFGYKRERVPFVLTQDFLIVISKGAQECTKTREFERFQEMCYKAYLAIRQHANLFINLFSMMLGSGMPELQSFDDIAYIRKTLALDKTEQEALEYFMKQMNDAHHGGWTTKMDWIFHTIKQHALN

Compound | IC50 (PIK3CA (human)) [nM] | IC50 (PIK3CD (Human)) [nM] | IC50 (PIK3CB (Human)) [nM]
CCNC(=O)c1cc(-c2ccc3ncc4c(c3c2)n(-c2c(C)nn(C)c2C)c(=O)n4C)cnc1NC | 81 | 39 | 603
Cn1cc(-n2c(=O)n(C)c3cnc4ccc(-c5cncc(C(C)(C)O)c5)cc4c32)c(Cl)n1 | 8 | 5 | 5
COCc1cc(-c2ccc3ncc4c(c3c2)n(-c2cn(C)nc2Cl)c(=O)n4C)cnc1N | 9 | 3 | 7
CCNc1cc(-c2ccc3ncc4c(c3c2)n(-c2c(C)noc2C)c(=O)n4C)cnc1Cl | 139 | 22 | 101
COCc1ncc(-c2ccc3ncc4c(c3c2)n(-c2cn(C)nc2Cl)c(=O)n4C)cc1OC | 15 | 5 | 24
CCn1cc(-n2c(=O)n(C)c3cnc4ccc(-c5ccc(-n6cccn6)cc5)cc4c32)c(C)n1 | 27 | 75 | 
CCn1cc(-n2c(=O)n(C)c3cnc4ccc(-c5cnc(C)c(OC(C)C)c5)cc4c32)c(C)n1 | 4 | 5 | 30
CCc1ncc(-c2ccc3ncc4c(c3c2)n(-c2cn(C)nc2C)c(=O)n4C)cc1OC(C)C | 41 | 18 | 73

Source: the Kinase Knowledgebase extract (Sharma et al. 2016)
